In paper PMC10695101 (Molecular and cellular endocrinology, 2023):

System: androgen receptor α (ARα)
Experiment: Gal4DBD-LBD/UAS luciferase transactivation assay in U-2 OS cells
Format: cell-based, Apteronotus albifrons

Structure (SMILES)	EC50 [nM]
C[C@]12CC(=O)[C@H]3[C@@H](CCC4=CC(=O)CC[C@@]43C)[C@@H]1CC[C@@H]2O [11-KT]	10
